{"source": "patent US20210170044A1", "about": "“SYSTEMS AND METHODS FOR LYSOSOME INDUCED IMMUNOGENIC CELL DEATH” (Antigenesis LLC, priority 2017, published 2021)", "origin": "cited, not measured here", "test_system": "advanced hepatocellular carcinoma", "conditions": "patients with advanced hepatocellular carcinoma receiving 5-fluorouracil; pravastatin as well vs control group"}
{"smiles": "O=c1[nH]cc(F)c(=O)[nH]1", "note": "[5-fluoroucacil]", "values": [{"measurement": "median survival time", "value": 9, "unit": "months"}]}
